Results as given in publication PMC5601360 (Journal of Medicinal Chemistry, 2017).

Columns and labels:
[1] = tested on: acetic acid-induced writhing in CD1 mice; conditions: mouse, in vivo, sc; cited from earlier work
human DOP receptor = biological target: T1, human DOP receptor (Homo sapiens, UniProt P41143); conditions: CHO-hDOP membranes; ref 9a; read-out: receptor binding affinity Ki DOP; cited from earlier work
T1 construct: expressed in transfected cells; host or cells: CHO-hDOP cells (gift of Dr. Lawrence Toll, SRI International)

CD1 mice = conditions: mouse, in vivo, sc
mice = conditions: icv, ref 9d; cited from earlier work

T1 sequence (P41143 whole entry): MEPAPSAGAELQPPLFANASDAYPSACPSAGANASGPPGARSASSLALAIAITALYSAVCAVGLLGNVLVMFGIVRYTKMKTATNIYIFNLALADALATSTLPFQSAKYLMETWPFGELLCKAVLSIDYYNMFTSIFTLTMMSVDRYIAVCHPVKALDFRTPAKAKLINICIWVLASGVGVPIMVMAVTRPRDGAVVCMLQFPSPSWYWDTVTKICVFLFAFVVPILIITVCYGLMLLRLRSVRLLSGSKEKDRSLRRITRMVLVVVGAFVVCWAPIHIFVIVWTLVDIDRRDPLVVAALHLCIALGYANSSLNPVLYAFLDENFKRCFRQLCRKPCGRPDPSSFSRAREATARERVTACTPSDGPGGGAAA

Oc1cccc(CCN(CCc2ccccc2)CC2CCC2)c1 [Compound 1]
antinociceptive ED50 (95% CI) [1]: 1.91 (1.02–3.58) mg/kg
Ki (human DOP receptor): > 10 µM
effect on rotarod performance (evoked locomotor activity) (CD1 mice): did not affect the evoked locomotor activity
antinociceptive potency compared to U50,488 (mice): 2 fold
